Results taken from patent publication US8895585B2, “Nicotinamide derivative or salt thereof” (FUJIFILM Corporation, priority 2010, dated 2014).
Read-outs that look alike come from different tables or passages of the source.

Key:
[1] = biological target: T1, glutathione S-transferase (GST)-fused full-length human Syk protein (Homo sapiens, UniProt P43405); experiment: Syk enzyme assay; type: biochemical; settings: Syk enzyme assay, Test Example 1; read-out: IC50 of Syk-inhibitory activity
T1 construct: (GST)-fused full-length human Syk protein; GST (glutathione S-transferase); purchased Carna Biosciences
How it was run: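 GST-tagged full-length human Syk (baculovirus) preincubated with compound 15 min at room temperature (pH 7.0, 10 mM MgCl2), then reacted 40 min with 0.4 μM biotinylated peptide substrate and 27 μM ATP (final). Phosphorylation read by HTRF (615/665 nm) after EDTA stop; IC50 reported.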

[2] = test system: THP-1 cells; experiment: TNFα generation assay; type: cell-based, human; settings: Table 22, read-out: IC50 in TNFα generation assay
How it was run: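 Secreted TNFα in supernatant quantified by ELISA or AlphaLISA after 7 h culture on human IgG-coated wells (10 μg/ml coating). Cells were IFN-γ-differentiated THP-1 (10 ng/ml, 2 days), exposed to compound for 30 min at room temperature before plating.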

[3] = Homo sapiens, THP-1, THP-1 cells

Compound	IC50 [1] [nM]	IC50 [2, 3] [nM]	IC50 ([2]; THP-1 cells) [nM]
Cn1nc(F)c2cc(Nc3nc(NC4CCCCC4N)c(F)cc3C(N)=O)ccc21 (stereo not shown) [Example 002-196]	< 10	65 to 130	–
CCn1nc(F)c2cc(Nc3nc(NC4CCCCC4N)c(F)cc3C(N)=O)ccc21 (stereo not shown) [Example 002-197]	< 10	130 to 200	–
Cn1nc(F)c2ccc(Nc3nc(NC4CCCCC4N)c(F)cc3C(N)=O)cc21 (stereo not shown) [Example 002-198]	< 10	65 to 130	–
CCn1nc(F)c2ccc(Nc3nc(NC4CCCCC4N)c(F)cc3C(N)=O)cc21 (stereo not shown) [Example 002-199]	< 10	130 to 200	–
NC(=O)c1cc(F)c(NC2CCCCC2N)nc1Nc1ccc2c(cnn2CCF)c1 (stereo not shown) [Example 002-200]	< 10	< 65	–
NC(=O)c1cc(F)c(NC2CCCCC2N)nc1Nc1ccc2cnn(CCF)c2c1 (stereo not shown) [Example 002-201]	< 10	65 to 130	–
NC(=O)c1cc(F)c(NC2CCCCC2N)nc1Nc1ccc2c(c1)c(F)nn2CCF (stereo not shown) [Example 002-204]	< 10	65 to 130	–
NC(=O)c1cc(F)c(NC2CCCCC2N)nc1Nc1ccc2c(F)nn(CCF)c2c1 (stereo not shown) [Example 002-205]	< 10	65 to 130	–
Cc1nn(C)c2ccc(Nc3nc(NC4CCCCC4N)c(F)cc3C(N)=O)cc12 (stereo not shown) [Example 002-206]	< 10	< 65	–
CCn1nc(C)c2cc(Nc3nc(NC4CCCCC4N)c(F)cc3C(N)=O)ccc21 (stereo not shown) [Example 002-207]	< 10	65 to 130	–
COCCn1nc(C)c2cc(Nc3nc(NC4CCCCC4N)c(F)cc3C(N)=O)ccc21 (stereo not shown) [Example 002-208]	< 10	65 to 130	–
Cc1nn(CCF)c2ccc(Nc3nc(NC4CCCCC4N)c(F)cc3C(N)=O)cc12 (stereo not shown) [Example 002-209]	< 10	65 to 130	–
Cc1nn(CC(F)F)c2ccc(Nc3nc(NC4CCCCC4N)c(F)cc3C(N)=O)cc12 (stereo not shown) [Example 002-210]	< 10	65 to 130	–
NC(=O)c1cc(F)c(N[C@@H]2CCCC[C@@H]2N)nc1Nc1cnc2c([N+](=O)[O-])cccc2c1 [Example 004-005]	< 10	65 to 130	–
Cn1ccc2c(Nc3nc(N[C@@H]4CCCC[C@@H]4N)c(F)cc3C(N)=O)cncc21 [Example 004-006]	< 10	65 to 130	–
NC(=O)c1cc(F)c(N[C@@H]2CCCC[C@@H]2N)nc1Nc1cncc2c1ccn2CCN1CCCC1 [Example 004-007]	< 10	65 to 130	–
NC(=O)c1cc(F)c(N[C@@H]2CCCC[C@@H]2N)nc1Nc1ccc2nc(-c3ccccc3)cn2c1 [Example 004-014]	< 10	130 to 200	–
Cc1ccncc1Nc1nc(N[C@@H]2CCCC[C@@H]2N)c(F)cc1C(N)=O [Example 004-019]	10 to 50	130 to 200	–
NC(=O)c1cc(F)c(N[C@@H]2CCCC[C@@H]2N)nc1Nc1cncc2c1cnn2-c1ccccc1 [Example 004-020]	< 10	130 to 200	–
NC(=O)c1cc(F)c(N[C@@H]2CCCC[C@@H]2N)nc1Nc1cnc2c(ccn2CCN2CCCC2)c1 [Example 004-022]	10 to 50	65 to 130	–

Compound	IC50 [1] [nM]	IC50 [2, 3] [nM]	IC50 ([2]; THP-1 cells) [nM]
NC(=O)c1cc(F)c(N[C@@H]2CCCC[C@@H]2N)nc1Nc1cnc2c(ccn2CCN2CCOCC2)c1 [Example 004-024]	50 to 100	130 to 200	–
NC(=O)c1cc(F)c(N[C@@H]2CCCC[C@@H]2N)nc1Nc1ccnc2c1ccn2CCN1CCOCC1 [Example 004-025]	< 10	< 65	–
CCN(CC)CCn1ccc2c(Nc3nc(N[C@@H]4CCCC[C@@H]4N)c(F)cc3C(N)=O)ccnc21 [Example 004-028]	< 10	65 to 130	–
NC(=O)c1cc(F)c(N[C@@H]2CCCC[C@@H]2N)nc1Nc1ccnc2c1ccn2CCN1CCCCC1 [Example 004-029]	< 10	130 to 200	–
CN(C)CCCn1ccc2c(Nc3nc(N[C@@H]4CCCC[C@@H]4N)c(F)cc3C(N)=O)ccnc21 [Example 004-030]	< 10	130 to 200	–
NC(=O)c1cc(F)c(N[C@@H]2CCCC[C@@H]2N)nc1Nc1cnc2c(N3CCOCC3)cccc2c1 [Example 004-033]	< 10	130 to 200	–
COCCn1ccc2c(Nc3nc(N[C@@H]4CCCC[C@@H]4N)c(F)cc3C(N)=O)ccnc21 [Example 004-035]	< 10	130 to 200	–
CC(C)Cn1ccc2c(Nc3nc(N[C@@H]4CCCC[C@@H]4N)c(F)cc3C(N)=O)ccnc21 [Example 004-036]	< 10	65 to 130	–
NC(=O)c1cc(F)c(N[C@@H]2CCCC[C@@H]2N)nc1Nc1ccnc2c1ccn2C1CC1 [Example 004-037]	< 10	65 to 130	–
NC(=O)c1cc(F)c(N[C@@H]2CCCC[C@@H]2N)nc1Nc1ccnc2c1ccn2CC(F)(F)F [Example 004-039]	< 10	130 to 200	–
NC(=O)c1cc(F)c(N[C@@H]2CCCC[C@@H]2N)nc1Nc1ccnc2c1ccn2CC1CC1 [Example 004-040]	< 10	130 to 200	–
Cn1ccc2c(Nc3nc(N[C@H](Cc4ccccc4)C(N)=O)c(F)cc3C(N)=O)ccnc21 [Example 004-044]	< 10	130 to 200	–
NC(=O)c1cc(F)c(N[C@H](Cc2ccccc2)C(N)=O)nc1Nc1ccnc2c1ccn2CC1CC1 [Example 004-046]	< 10	130 to 200	–
NC(=O)c1cc(F)c(N[C@@H]2CCCC[C@@H]2N)nc1Nc1cnc2c(NCC3CC3)cccc2c1 [Example 004-134]	10 to 50	130 to 200	–
NC(=O)c1cc(F)c(N[C@@H]2CCCC[C@@H]2N)nc1Nc1cnc2c(c1)OCO2 [Example 004-160]	10 to 50	130 to 200	–
COCCn1ncc2cc(Nc3nc(N[C@@H]4CCCC[C@@H]4N)c(F)cc3C(N)=O)ccc21 [Example 004-172, 6-((1R,2S)-2-aminocyclohexylamino)-5-fluoro-2-((1-(2-methoxyethyl)-1H-indazol-5-yl)-amino)nicotinamide]	< 10	–	65 to 130
CC(C)C[C@H](CN)Nc1nc(Nc2cncc(-n3nccn3)c2)c(C(N)=O)cc1F [Example 004-195, (R)-2-((5-(2H-1,2,3-triazol-2-yl)pyridin-3-yl)amino)-6-((1-amino-4-methylpentan-2-yl)amino)-5-fluoronicotinamide]	< 10	65 to 130	–
CC(C)C[C@H](CN)Nc1nc(Nc2cnc3c(N)cccc3c2)c(C(N)=O)cc1F [Example 004-196, (R)-6-((1-amino-4-methylpentan-2-yl)amino)-2-((8-aminoquinolin-3-yl)amino)-5-fluoronicotinamide]	< 10	130 to 200	–
COc1ncc(Nc2nc(N[C@@H]3CCCC[C@@H]3N)c(F)cc2C(N)=O)c2cc[nH]c12 [Example 004-235]	< 10	65 to 130	–

More lines, now with the values ahead:

IC50 [1] [nM]	IC50 [2, 3] [nM]	IC50 ([2]; THP-1 cells) [nM]	Compound
< 10	65 to 130	–	NC(=O)c1cc(F)c(NC2CCCCC2N)nc1Nc1cncc(-c2ccc3ccncc3c2)c1 (stereo not shown) [Example 002-191]
< 10	130 to 200	–	NC(=O)c1cc(F)c(NC2CCCCC2N)nc1Nc1ccnc(-c2ccc3cnccc3c2)c1 (stereo not shown) [Example 002-193]
10 to 50	< 65	–	NC(=O)c1cc(F)c(N[C@@H]2CCCC[C@@H]2N)nc1Nc1cnc2cccnc2c1 [Example 004-002]
10 to 50	< 65	–	NC(=O)c1cc(F)c(N[C@@H]2CCCC[C@@H]2N)nc1Nc1cnc2ccncc2c1 [Example 004-003]
10 to 50	65 to 130	–	NC(=O)c1cc(F)c(N[C@@H]2CCCC[C@@H]2N)nc1Nc1cncc2cccnc12 [Example 004-004]
10 to 50	130 to 200	–	NC(=O)c1cc(F)c(N[C@@H]2CCCC[C@@H]2N)nc1Nc1cncc(C(=O)Nc2ccccc2)c1 [Example 004-011]
< 10	< 65	–	Cn1ccc2cc(Nc3nc(N[C@@H]4CCCC[C@@H]4N)c(F)cc3C(N)=O)cnc21 [Example 004-012]
< 10	65 to 130	–	COC(=O)c1cncc(Nc2nc(N[C@@H]3CCCC[C@@H]3N)c(F)cc2C(N)=O)c1 [Example 004-016]
10 to 50	65 to 130	–	Cc1cc(Nc2nc(N[C@@H]3CCCC[C@@H]3N)c(F)cc2C(N)=O)ccn1 [Example 004-018]
< 10	< 65	–	NC(=O)c1cc(F)c(N[C@@H]2CCCC[C@@H]2N)nc1Nc1cnc2ncsc2c1 [Example 004-026]
10 to 50	130 to 200	–	Cn1cnc2cc(Nc3nc(N[C@@H]4CCCC[C@@H]4N)c(F)cc3C(N)=O)cnc21 [Example 004-027]
< 10	130 to 200	–	CN(C)c1cccc2cc(Nc3nc(N[C@@H]4CCCC[C@@H]4N)c(F)cc3C(N)=O)cnc12 [Example 004-032]
100 to 1000	65 to 130	–	NC(=O)c1cc(F)c(N[C@@H]2CCCC[C@@H]2N)nc1Nc1cncc(-n2ccnn2)c1 [Example 004-043]
10 to 50	65 to 130	–	NC(=O)c1cc(F)c(N[C@@H]2CCCC[C@@H]2N)nc1Nc1cncc(-c2cccnc2)c1 [Example 004-103]
10 to 50	130 to 200	–	NC(=O)c1cc(F)c(N[C@@H]2CCCC[C@@H]2N)nc1Nc1cncc(-c2ccncc2)c1 [Example 004-104]
< 10	130 to 200	–	NC(=O)c1cc(F)c(N[C@@H]2CCCC[C@@H]2N)nc1Nc1cncc(-c2ccccn2)c1 [Example 004-106]
10 to 50	65 to 130	–	Cn1ncc2cc(Nc3nc(N[C@@H]4CCCC[C@@H]4N)c(F)cc3C(N)=O)cnc21 [Example 004-213]
